We go through 16 molecules from US11866430B2, “Naphthyridinone compounds useful as T cell activators” (priority 2018, dated 2024).

Like-named read-outs stand apart in the source and are kept apart here. Some results are limits rather than exact numbers.

The target of test [1] is T1, human DGKζ (Homo sapiens (Human), UniProt Q13574). The experiment in a line: DGKζ LIPGLO assay (extruded liposome substrate). The format is biochemical. Particulars: extruded liposome substrate; read-out: DGKζ LIPGLO IC50. As to the method: The DGKα and DGKζ reactions were performed using either extruded liposome (DGKα and DGKζ LIPGLO assays) or detergent/lipid micelle substrate (DGKα and DGKζ assays). The reactions were carried out in 50 mM MOPS pH 7.5, 100 mM NaCl, 10 mM MgCl2, 1 μM CaCl2, and 1 mM DTT (assay buffer). The reactions using a detergent/lipid micelle substrate also contained 50 mM octyl B-D-glucopyranoside.
T1 sequence (Q13574 other isoform, or with tags, fused parts or gaps): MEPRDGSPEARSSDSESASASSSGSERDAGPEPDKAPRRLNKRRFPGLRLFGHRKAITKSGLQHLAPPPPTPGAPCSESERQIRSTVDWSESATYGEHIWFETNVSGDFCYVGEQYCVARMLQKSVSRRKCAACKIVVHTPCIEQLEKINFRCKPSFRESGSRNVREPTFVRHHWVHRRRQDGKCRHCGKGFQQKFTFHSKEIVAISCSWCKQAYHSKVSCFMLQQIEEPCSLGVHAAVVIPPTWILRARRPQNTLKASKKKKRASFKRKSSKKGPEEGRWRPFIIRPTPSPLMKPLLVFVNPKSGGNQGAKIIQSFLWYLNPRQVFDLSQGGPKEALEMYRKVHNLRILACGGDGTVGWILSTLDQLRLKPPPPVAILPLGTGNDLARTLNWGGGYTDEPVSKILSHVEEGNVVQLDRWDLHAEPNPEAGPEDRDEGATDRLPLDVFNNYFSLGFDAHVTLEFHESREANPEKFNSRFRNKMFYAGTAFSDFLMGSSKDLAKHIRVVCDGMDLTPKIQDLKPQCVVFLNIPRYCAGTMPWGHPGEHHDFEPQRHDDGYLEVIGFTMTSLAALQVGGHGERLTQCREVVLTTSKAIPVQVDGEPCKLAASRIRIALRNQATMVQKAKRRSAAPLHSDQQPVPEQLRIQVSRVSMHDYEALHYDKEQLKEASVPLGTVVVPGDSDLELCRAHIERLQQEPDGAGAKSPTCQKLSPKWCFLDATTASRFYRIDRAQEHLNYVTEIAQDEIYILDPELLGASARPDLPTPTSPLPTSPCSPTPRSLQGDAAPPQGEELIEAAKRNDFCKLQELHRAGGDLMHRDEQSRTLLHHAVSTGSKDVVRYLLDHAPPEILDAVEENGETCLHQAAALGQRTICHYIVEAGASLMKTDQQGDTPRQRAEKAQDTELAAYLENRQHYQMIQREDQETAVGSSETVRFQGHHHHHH
A 5 mL enzyme/substrate solution at 2× final reaction concentration was prepared by combining 2.5 mL 4× enzyme solution (20 nM DGKα or DGKζ (prepared as described below) in assay buffer) and 2.5 mL of either 4× liposome or 4× detergent/lipid micelle solution (compositions described below) and incubated at room temperature for 10 minutes. Next, 1 μL 2× enzyme/substrate solution was added to wells containing the test compound and reactions were initiated with the addition of 1 μL 300 uM ATP. The reactions were allowed to proceed for 1 hr, after which 2 μL Glo Reagent (Promega V9101) was added and incubated for 40 minutes. Next, 4 μL Kinase Detection Reagent was added and incubated for 30 minutes. Luminescence was recorded using an EnVision microplate reader. […] The compounds were evaluated at 11 concentrations to determine IC50.
The PC, DAG, and PS were dissolved in chloroform, combined, and dried in vacuo to a thin film. The lipids were hydrated to 20 mM in 50 mM MOPS pH 7.5, 100 mM NaCl, 5 mM MgCl2, and were freeze-thawed five times. The lipid suspension was extruded through a 100 nm polycarbonate filter eleven times. […] The liposome preparation was stored at 4° C. for as long as four weeks.
Baculovirus amplification was achieved using infected Sf9 cells at 1:1500 virus/cell ratios, and grown for 65 hours at 27° C. post-transfection.
The expression scale up for each protein was carried out in the Cellbag 50 L WAVE-Bioreactor System 20/50 from GE Healthcare Bioscience. 12 L of 2×10^6 cells/mL Sf9 cells (Expression System, Davis, Calif.) grown in ESF921 insect medium (Expression System) were infected with virus stock at 1:200 virus/cell ratios, and grown for 66-68 hours at 27° C. post-infection. The infected cell culture was harvested by centrifugation at 2000 rpm for 20 min 4° C. in a SORVALL® RC12BP centrifuge. The cell pellets were stored at −70° C. until purification.
The cells were lysed using nitrogen cavitation method with a nitrogen bomb (Parr Instruments), and the lysates were clarified by centrifugation. […] The three steps column chromatography included nickel affinity resin capture (i.e. HisTrap FF crude, GE Healthcare), followed by size exclusion chromatography (i.e. HiLoad 26/600 Superdex 200 prep grade, GE Healthcare for DGK-alpha, and HiPrep 26/600 Sephacryl S 300_HR, GE Healthcare for DGK-zeta). The third step was ion exchange chromatography, and differed for the two isoforms. DGKα was polished using Q-Sepharose anion exchange chromatography (GE Healthcare). DGKζ was polished using SP Sepharose cation exchange chromatography (GE Healthcare). The proteins were delivered at concentrations of ≥2 mg/mL. The formulation buffers were identical for both proteins: 50 mM Hepes, pH 7.2, 500 mM NaCl, 10% v/v glycerol, 1 mM TCEP, and 0.5 mM EDTA.

In test [2] the target is T1, human DGKζ. The experiment in a line: DGKζ assay (detergent/lipid micelle substrate). The format is biochemical. Particulars: detergent/lipid micelle substrate; read-out: DGKζ IC50. An outline of the steps: (§1)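 Full-length human DGKζ (and DGKα), C-terminal His-tagged, Sf9-expressed, with phosphatidylserine/DAG micelles in 50 mM octyl glucoside; buffer 50 mM MOPS pH 7.5, 100 mM NaCl, 10 mM MgCl2, 1 μM CaCl2, 1 mM DTT.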

A further test concerns the target human DGKα (Homo sapiens (Human), UniProt P23743). The experiment in a line: biochemical. Particulars: detergent/lipid micelle substrate; read-out: DGKα IC50. An outline of the steps:
as §1

For test [3], the system named is pre-activated CD4 T cells and Raji cells. The experiment in a line: Raji CD4 T Cell IL2 Assay. The format is cell-based.

Chain of human DGKα (P23743 other isoform, or with tags, fused parts or gaps): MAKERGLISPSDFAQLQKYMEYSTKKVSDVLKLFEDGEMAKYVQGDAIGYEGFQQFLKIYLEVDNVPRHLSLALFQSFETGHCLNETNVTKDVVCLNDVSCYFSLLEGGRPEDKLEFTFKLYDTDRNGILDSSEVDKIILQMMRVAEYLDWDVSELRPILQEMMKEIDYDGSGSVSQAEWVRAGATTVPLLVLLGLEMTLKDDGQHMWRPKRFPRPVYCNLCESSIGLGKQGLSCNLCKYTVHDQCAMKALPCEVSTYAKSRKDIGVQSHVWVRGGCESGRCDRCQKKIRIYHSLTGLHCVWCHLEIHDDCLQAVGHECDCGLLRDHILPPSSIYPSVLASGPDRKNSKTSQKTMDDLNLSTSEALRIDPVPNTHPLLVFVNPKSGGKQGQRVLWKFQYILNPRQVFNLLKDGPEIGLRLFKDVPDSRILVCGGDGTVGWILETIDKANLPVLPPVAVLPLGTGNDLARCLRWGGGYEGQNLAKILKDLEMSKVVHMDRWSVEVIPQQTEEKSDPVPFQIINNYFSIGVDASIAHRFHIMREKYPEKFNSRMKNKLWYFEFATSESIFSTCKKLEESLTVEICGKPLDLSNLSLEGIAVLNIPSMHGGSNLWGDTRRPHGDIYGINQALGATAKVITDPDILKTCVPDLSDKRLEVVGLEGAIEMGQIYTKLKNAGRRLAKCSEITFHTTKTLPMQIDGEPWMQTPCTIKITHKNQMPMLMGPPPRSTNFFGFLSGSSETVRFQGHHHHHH

Usually IC50 stands for the midpoint of a concentration-inhibition curve. On to `Cn1c(=O)c(C#N)c(N2CCN(Cc3ccc(OC(F)(F)F)cc3O)CC2)c2nc(Cl)ccc21` [Example 381, 6-chloro-4-(4-{[2-hydroxy-4-(trifluoromethoxy)phenyl]methyl}piperazin-1-yl)-1-methyl-2-oxo-1,2-dihydro-1,5-naphthyridine-3-carbonitrile], for which the IC50 was 27000 nM at human DGKζ [1] and > 240000 nM at human DGKζ [2].

Consider `C#CCn1c(=O)c([N+](=O)[O-])c(N2CCN(C(c3ccc(F)cc3)c3ccccc3OC)CC2)c2nc(C#N)ccc21` (single isomer, unassigned) [Example 130, 8-(4-((4-fluorophenyl)(2-methoxyphenyl)methyl)piperazin-1-yl)-7-nitro-6-oxo-5-(prop-2-yn-1-yl)-5,6-dihydro-1,5-naphthyridine-2-carbonitrile], for which the half-maximal inhibitory concentration (IC50) worked out at 310 nM on human DGKζ [1]; 30000 nM at human DGKα; 1900 nM on human DGKζ [2]; 19 nM in test [3] (Homo sapiens, Raji).

Take `Cn1c(=O)c(C#N)c(N2CCN(Cc3ccccc3NC(=O)OC(C)(C)C)CC2)c2nc(Br)ccc21` [Example 284, tert-butyl N-(2-{[4-(6-bromo-3-cyano-1-methyl-2-oxo-1,2-dihydro-1,5-naphthyridin-4-yl)piperazin-1-yl]methyl}phenyl)carbamate]: the half-inhibitory concentration (IC50) at human DGKα is 1000 nM; on human DGKζ [2] it was > 240000 nM; in test [3] (Homo sapiens, Raji) it was 98 nM.

As to `COc1cccc(CN2CCN(c3c(C#N)c(=O)n(C)c4ccc(Br)nc34)CC2)c1O` [Example 368, 6-bromo-4-{4-[(2-hydroxy-3-methoxyphenyl)methyl]piperazin-1-yl}-1-methyl-2-oxo-1,2-dihydro-1,5-naphthyridine-3-carbonitrile], the IC50 at human DGKα is 400 nM; on human DGKζ [2] it was > 240000 nM; in test [3] (Homo sapiens, Raji), > 100000 nM.

Regarding `Cn1c(=O)c(C#N)c(N2CCN(Cc3cc(Cl)cc(Cl)c3O)CC2)c2nc(Br)ccc21` [Example 366, 6-bromo-4-{4-[(3,5-dichloro-2-hydroxyphenyl)methyl]piperazin-1-yl}-1-methyl-2-oxo-1,2-dihydro-1,5-naphthyridine-3-carbonitrile], the IC50 is 1300 nM at human DGKα; 160000 nM on human DGKζ [2]; > 100000 nM in test [3] (Homo sapiens, Raji).

On to `C#CCOc1ccccc1C(c1ccc(F)cc1)N1CCN(c2c([N+](=O)[O-])c(=O)n(C)c3ccc(C#N)nc23)CC1` (single isomer, unassigned) [Example 101, 8-(4-((4-fluorophenyl)(2-(prop-2-yn-1-yloxy)phenyl)methyl)piperazin-1-yl)-5-methyl-7-nitro-6-oxo-5,6-dihydro-1,5-naphthyridine-2-carbonitrile], for which the IC50 amounted to 15000 nM at human DGKα; 27000 nM on human DGKζ [2]; 190 nM in test [3] (Homo sapiens, Raji).

In the case of `Cn1c(=O)c(C#N)c(N2CCN(Cc3cccc4c3NCC4)CC2)c2nc(Br)ccc21` [Example 299, 6-bromo-4-{4-[(2,3-dihydro-1H-indol-7-yl)methyl]piperazin-1-yl}-1-methyl-2-oxo-1,2-dihydro-1,5-naphthyridine-3-carbonitrile], the IC50 on human DGKα was 570 nM; on human DGKζ [2], > 240000 nM; in test [3] (Homo sapiens, Raji) it was 160 nM.

`Cn1c(=O)c(C#N)c(N2CCN(Cc3ccc(O)c(C(F)(F)F)c3)CC2)c2nc(Cl)ccc21` [Example 355, 6-chloro-4-(4-{[4-hydroxy-3-(trifluoromethyl)phenyl]methyl}piperazin-1-yl)-1-methyl-2-oxo-1,2-dihydro-1,5-naphthyridine-3-carbonitrile]: the IC50 on human DGKα is 7100 nM; on human DGKζ [2] it was > 240000 nM; in test [3] (Homo sapiens, Raji), 2800 nM.

Take `COc1ccccc1C(c1ccc(F)cc1)N1CCN(c2c([N+](=O)[O-])c(=O)n(C)c3ccc(C#N)nc23)CC1` (racemic) [Example 18, 8-{4-[(4-fluorophenyl)(2-methoxyphenyl)methyl]piperazin-1-yl}-5-methyl-7-nitro-6-oxo-5,6-dihydro-1,5-naphthyridine-2-carbonitrile]: the IC50 at human DGKα came out at 960 nM; at human DGKζ [2], 2500 nM; in test [3] (Homo sapiens, Raji), 23 nM.

As to `Cn1c(=O)c(C#N)c(N2CCN(Cc3c(O)cccc3F)CC2)c2nc(Br)ccc21` [Example 294, 6-bromo-4-{4-[(2-fluoro-6-hydroxyphenyl)methyl]piperazin-1-yl}-1-methyl-2-oxo-1,2-dihydro-1,5-naphthyridine-3-carbonitrile], the IC50 was 110 nM on human DGKα; > 240000 nM on human DGKζ [2]; 140 nM in test [3] (Homo sapiens, Raji).

Turning to `Cc1ccc2c(n1)c(N1CCN(Cc3ccccc3O)CC1)c(C#N)c(=O)n2C` [Example 337, 4-{4-[(2-hydroxyphenyl)methyl]piperazin-1-yl}-1,6-dimethyl-2-oxo-1,2-dihydro-1,5-naphthyridine-3-carbonitrile], the IC50 at human DGKα is 65 nM; on human DGKζ [2] it was > 81000 nM; in test [3] (Homo sapiens, Raji) it was 550 nM.

Regarding `Cn1c(=O)c(C#N)c(N2CCN(Cc3ccccc3O)CC2)c2nc(C#N)ccc21` [Example 317, 8-{4-[(2-hydroxyphenyl)methyl]piperazin-1-yl}-5-methyl-6-oxo-5,6-dihydro-1,5-naphthyridine-2,7-dicarbonitrile], the IC50 at human DGKα was determined as 160 nM; at human DGKζ [2] it was 34000 nM; in test [3] (Homo sapiens, Raji), 290 nM.

For `Cn1c(=O)c(C#N)c(N2CCN(Cc3ccc(Cl)cc3O)CC2)c2nc(Br)ccc21` [Example 266, 6-bromo-4-{4-[(4-chloro-2-hydroxyphenyl)methyl]piperazin-1-yl}-1-methyl-2-oxo-1,2-dihydro-1,5-naphthyridine-3-carbonitrile], the IC50 on human DGKζ [1] was 11000 nM; at human DGKα, 27 nM; on human DGKζ [2] it was > 240000 nM; in test [3] (Homo sapiens, Raji), 41 nM.

Regarding `C=CCOc1cccc(C)c1C(c1ccc(F)cc1)N1CCN(c2c([N+](=O)[O-])c(=O)n(C)c3ccc(Br)nc23)CC1` (single isomer, unassigned) [Example 95, 4-(4-((2-(allyloxy)-6-methylphenyl)(4-fluorophenyl)methyl)piperazin-1-yl)-6-bromo-1-methyl-3-nitro-1,5-naphthyridin-2(1-H)-one], the results for the IC50 (on human DGKα; on human DGKζ [2]; in test [3]) were > 240000 nM, > 240000 nM and 1100 nM, respectively.

`COc1cccc(CN2CCN(c3c(C#N)c(=O)n(C)c4ccc(Cl)nc34)CC2)c1` [Example 327, 6-chloro-4-{4-[(3-methoxyphenyl)methyl]piperazin-1-yl}-1-methyl-2-oxo-1,2-dihydro-1,5-naphthyridine-3-carbonitrile]: the IC50 was 660 nM at human DGKα; 140000 nM at human DGKζ [2]; 430 nM in test [3] (Homo sapiens, Raji).

Take `Cn1c(=O)c(C#N)c(N2CCN(Cc3cc(F)cc(F)c3O)CC2)c2nc(Cl)ccc21` [Example 298, 6-chloro-4-{4-[(3,5-difluoro-2-hydroxyphenyl)methyl]piperazin-1-yl}-1-methyl-2-oxo-1,2-dihydro-1,5-naphthyridine-3-carbonitrile]: the IC50 came to 830 nM on human DGKα; 27000 nM at human DGKζ [2]; 160 nM in test [3] (Homo sapiens, Raji).
